Measurements from the supplement of paper PMC10307832.

Tests used:
Experiment in all cases: relative viability (nuclei count vs DMSO), 5 days (fraction); higher = more cells survive
Pemetrexed + Alpelisib = compound: Nc1nc2[nH]cc(CCc3ccc(C(=O)N[C@@H](CCC(=O)O)C(=O)O)cc3)c2c(=O)[nH]1 [Pemetrexed] + Cc1nc(NC(=O)N2CCC[C@H]2C(N)=O)sc1-c1ccnc(C(C)(C)C(F)(F)F)c1 [Alpelisib] (partner 2 µM)
How it was run: (§1)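 Cells from lung cancer lines were seeded into 1536-well plates and, one day later, dosed by pin tool. Treatments were either a single drug or a fixed dose of an anchor drug with five library-drug doses (not always all listed) in √10 steps. After 5 days, nuclei were stained in a one-step fixation (final 0.05% Triton X-100, 1% formaldehyde, 1 ug/ml Hoechst) and counted on 4× images, and relative viability is the treated-to-vehicle nuclei ratio, as the median of duplicate plates.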

Idelalisib + Vorinostat = compound: CC[C@H](Nc1ncnc2[nH]cnc12)c1nc2cccc(F)c2c(=O)n1-c1ccccc1 [Idelalisib] + O=C(CCCCCCC(=O)Nc1ccccc1)NO [Vorinostat] (partner 1 µM)
How it was run: as §1

Idelalisib + Linsitinib = compound: CC[C@H](Nc1ncnc2[nH]cnc12)c1nc2cccc(F)c2c(=O)n1-c1ccccc1 [Idelalisib] + C[C@]1(O)C[C@@H](c2nc(-c3ccc4ccc(-c5ccccc5)nc4c3)c3c(N)nccn32)C1 [Linsitinib] (partner 1 µM)
How it was run: as §1

Pemetrexed + Navitoclax = compound: Nc1nc2[nH]cc(CCc3ccc(C(=O)N[C@@H](CCC(=O)O)C(=O)O)cc3)c2c(=O)[nH]1 [Pemetrexed] + CC1(C)CCC(c2ccc(Cl)cc2)=C(CN2CCN(c3ccc(C(=O)NS(=O)(=O)c4ccc(N[C@H](CCN5CCOCC5)CSc5ccccc5)c(S(=O)(=O)C(F)(F)F)c4)cc3)CC2)C1 [Navitoclax] (partner 0.5 µM)
How it was run: as §1

Question: With H3255 as the cell line, how does the relative viability (Pemetrexed + Alpelisib; first compound 0.006325 µM) read?
Answer: 0.656

Question: And the relative viability (Pemetrexed + Alpelisib; first compound 0.02 µM)?
Answer: 0.736

Question: And the relative viability (Pemetrexed + Alpelisib; first compound 0.06325 µM)?
Answer: 0.606

Question: What about the relative viability (Pemetrexed + Alpelisib; first compound 0.2 µM) of the same cell line?
Answer: 0.632

Question: And the relative viability (Idelalisib + Vorinostat; first compound 0.04 µM)?
Answer: 0.978

Question: And the relative viability (Idelalisib + Vorinostat; first compound 0.1265 µM)?
Answer: 0.853

Question: What about the relative viability (Idelalisib + Vorinostat; first compound 0.4 µM) of the same cell line?
Answer: 0.796

Question: And the relative viability (Idelalisib + Vorinostat; first compound 1.265 µM)?
Answer: 0.91

Question: And the relative viability (Idelalisib + Vorinostat; first compound 4 µM)?
Answer: 0.736

Question: And the relative viability (Idelalisib + Linsitinib; first compound 0.04 µM)?
Answer: 0.959

Question: And the relative viability (Idelalisib + Linsitinib; first compound 0.1265 µM)?
Answer: 1.01

Question: And the relative viability (Idelalisib + Linsitinib; first compound 0.4 µM)?
Answer: 0.829

Question: And the relative viability (Idelalisib + Linsitinib; first compound 1.265 µM)?
Answer: 0.857

Question: What about the relative viability (Idelalisib + Linsitinib; first compound 4 µM) of the same cell line?
Answer: 0.801

Question: What about the relative viability (Pemetrexed + Navitoclax; first compound 0.002 µM) of the same cell line?
Answer: 0.325

Question: And the relative viability (Pemetrexed + Navitoclax; first compound 0.006325 µM)?
Answer: 0.508

Question: And the relative viability (Pemetrexed + Navitoclax; first compound 0.02 µM)?
Answer: 0.537

Question: And the relative viability (Pemetrexed + Navitoclax; first compound 0.06325 µM)?
Answer: 0.526

Question: And the relative viability (Pemetrexed + Navitoclax; first compound 0.2 µM)?
Answer: 0.464

Question: What does the source list for NCI-H23?
Answer: relative viability (Pemetrexed + Alpelisib; first compound 0.002 µM): 0.666; relative viability (Pemetrexed + Alpelisib; first compound 0.006325 µM): 0.532; relative viability (Pemetrexed + Alpelisib; first compound 0.02 µM): 0.741; relative viability (Pemetrexed + Alpelisib; first compound 0.06325 µM): 0.503; relative viability (Pemetrexed + Alpelisib; first compound 0.2 µM): 0.601; relative viability (Idelalisib + Vorinostat; first compound 0.04 µM): 0.674; relative viability (Idelalisib + Vorinostat; first compound 0.1265 µM): 0.657; relative viability (Idelalisib + Vorinostat; first compound 0.4 µM): 0.395; relative viability (Idelalisib + Vorinostat; first compound 1.265 µM): 0.317; relative viability (Idelalisib + Vorinostat; first compound 4 µM): 0.62; relative viability (Idelalisib + Linsitinib; first compound 0.04 µM): 0.693; relative viability (Idelalisib + Linsitinib; first compound 0.1265 µM): 0.592; relative viability (Idelalisib + Linsitinib; first compound 0.4 µM): 0.436; relative viability (Idelalisib + Linsitinib; first compound 1.265 µM): 0.499; relative viability (Idelalisib + Linsitinib; first compound 4 µM): 0.474; relative viability (Pemetrexed + Navitoclax; first compound 0.002 µM): 0.808; relative viability (Pemetrexed + Navitoclax; first compound 0.006325 µM): 0.756; relative viability (Pemetrexed + Navitoclax; first compound 0.02 µM): 1.07; relative viability (Pemetrexed + Navitoclax; first compound 0.06325 µM): 0.788; relative viability (Pemetrexed + Navitoclax; first compound 0.2 µM): 0.858

Question: Which results are given for NCI-H1944?
Answer: relative viability (Pemetrexed + Alpelisib; first compound 0.002 µM): 0.674; relative viability (Pemetrexed + Alpelisib; first compound 0.006325 µM): 0.751; relative viability (Pemetrexed + Alpelisib; first compound 0.02 µM): 0.869; relative viability (Pemetrexed + Alpelisib; first compound 0.06325 µM): 0.789; relative viability (Pemetrexed + Alpelisib; first compound 0.2 µM): 0.766; relative viability (Idelalisib + Vorinostat; first compound 0.04 µM): 0.68; relative viability (Idelalisib + Vorinostat; first compound 0.1265 µM): 0.526; relative viability (Idelalisib + Vorinostat; first compound 0.4 µM): 0.529; relative viability (Idelalisib + Vorinostat; first compound 1.265 µM): 0.5; relative viability (Idelalisib + Vorinostat; first compound 4 µM): 0.48; relative viability (Idelalisib + Linsitinib; first compound 0.04 µM): 1.19; relative viability (Idelalisib + Linsitinib; first compound 0.1265 µM): 1.06; relative viability (Idelalisib + Linsitinib; first compound 0.4 µM): 1.06; relative viability (Idelalisib + Linsitinib; first compound 1.265 µM): 1.14; relative viability (Idelalisib + Linsitinib; first compound 4 µM): 0.808; relative viability (Pemetrexed + Navitoclax; first compound 0.002 µM): 0.945; relative viability (Pemetrexed + Navitoclax; first compound 0.006325 µM): 1.01; relative viability (Pemetrexed + Navitoclax; first compound 0.02 µM): 1.03; relative viability (Pemetrexed + Navitoclax; first compound 0.06325 µM): 1.08; relative viability (Pemetrexed + Navitoclax; first compound 0.2 µM): 1.01

Question: For NCI-H1651, which relative viability (Pemetrexed + Alpelisib; first compound 0.002 µM) is on record?
Answer: 0.951

Question: What about the relative viability (Pemetrexed + Alpelisib; first compound 0.006325 µM) of the same cell line?
Answer: 0.948

Question: What about the relative viability (Pemetrexed + Alpelisib; first compound 0.02 µM) of the same cell line?
Answer: 0.939

Question: And the relative viability (Pemetrexed + Alpelisib; first compound 0.06325 µM)?
Answer: 0.952

Question: What about the relative viability (Pemetrexed + Alpelisib; first compound 0.2 µM) of the same cell line?
Answer: 0.93

Question: And the relative viability (Idelalisib + Vorinostat; first compound 0.04 µM)?
Answer: 0.577

Question: And the relative viability (Idelalisib + Vorinostat; first compound 0.1265 µM)?
Answer: 0.416

Question: And the relative viability (Idelalisib + Vorinostat; first compound 0.4 µM)?
Answer: 0.552

Question: And the relative viability (Idelalisib + Vorinostat; first compound 1.265 µM)?
Answer: 0.617

Question: And the relative viability (Idelalisib + Vorinostat; first compound 4 µM)?
Answer: 0.593

Question: And the relative viability (Idelalisib + Linsitinib; first compound 0.04 µM)?
Answer: 0.982

Question: And the relative viability (Idelalisib + Linsitinib; first compound 0.1265 µM)?
Answer: 0.903

Question: And the relative viability (Idelalisib + Linsitinib; first compound 0.4 µM)?
Answer: 0.789

Question: And the relative viability (Idelalisib + Linsitinib; first compound 1.265 µM)?
Answer: 0.923

Question: And the relative viability (Idelalisib + Linsitinib; first compound 4 µM)?
Answer: 0.714

Question: And the relative viability (Pemetrexed + Navitoclax; first compound 0.002 µM)?
Answer: 0.906

Question: What about the relative viability (Pemetrexed + Navitoclax; first compound 0.006325 µM) of the same cell line?
Answer: 0.977

Question: What about the relative viability (Pemetrexed + Navitoclax; first compound 0.02 µM) of the same cell line?
Answer: 1.01

Question: And the relative viability (Pemetrexed + Navitoclax; first compound 0.06325 µM)?
Answer: 0.938

Question: And the relative viability (Pemetrexed + Navitoclax; first compound 0.2 µM)?
Answer: 0.968

Question: With EBC-1 as the cell line, how does the relative viability (Pemetrexed + Alpelisib; first compound 0.002 µM) read?
Answer: 0.747

Question: And the relative viability (Pemetrexed + Alpelisib; first compound 0.006325 µM)?
Answer: 0.848

Question: What about the relative viability (Pemetrexed + Alpelisib; first compound 0.02 µM) of the same cell line?
Answer: 0.939

Question: What about the relative viability (Pemetrexed + Alpelisib; first compound 0.06325 µM) of the same cell line?
Answer: 0.836

Question: And the relative viability (Pemetrexed + Alpelisib; first compound 0.2 µM)?
Answer: 0.518

Question: And the relative viability (Idelalisib + Linsitinib; first compound 0.04 µM)?
Answer: 0.762

Question: And the relative viability (Idelalisib + Linsitinib; first compound 0.1265 µM)?
Answer: 1.03

Question: What about the relative viability (Idelalisib + Linsitinib; first compound 0.4 µM) of the same cell line?
Answer: 0.907

Question: And the relative viability (Idelalisib + Linsitinib; first compound 1.265 µM)?
Answer: 0.84

Question: What about the relative viability (Idelalisib + Linsitinib; first compound 4 µM) of the same cell line?
Answer: 0.637

Question: And the relative viability (Pemetrexed + Navitoclax; first compound 0.002 µM)?
Answer: 0.396

Question: What about the relative viability (Pemetrexed + Navitoclax; first compound 0.006325 µM) of the same cell line?
Answer: 0.42

Question: What about the relative viability (Pemetrexed + Navitoclax; first compound 0.02 µM) of the same cell line?
Answer: 0.474

Question: What about the relative viability (Pemetrexed + Navitoclax; first compound 0.06325 µM) of the same cell line?
Answer: 0.397

Question: What about the relative viability (Pemetrexed + Navitoclax; first compound 0.2 µM) of the same cell line?
Answer: 0.507

Question: With NCI-H1792 as the cell line, how does the relative viability (Pemetrexed + Alpelisib; first compound 0.002 µM) read?
Answer: 0.685

Question: And the relative viability (Pemetrexed + Alpelisib; first compound 0.006325 µM)?
Answer: 0.731

Question: And the relative viability (Pemetrexed + Alpelisib; first compound 0.02 µM)?
Answer: 0.806

Question: And the relative viability (Pemetrexed + Alpelisib; first compound 0.06325 µM)?
Answer: 0.788

Question: And the relative viability (Pemetrexed + Alpelisib; first compound 0.2 µM)?
Answer: 0.634

Question: What about the relative viability (Idelalisib + Linsitinib; first compound 0.04 µM) of the same cell line?
Answer: 0.242

Question: What about the relative viability (Idelalisib + Linsitinib; first compound 0.1265 µM) of the same cell line?
Answer: 0.498

Question: What about the relative viability (Idelalisib + Linsitinib; first compound 0.4 µM) of the same cell line?
Answer: 0.508

Question: And the relative viability (Idelalisib + Linsitinib; first compound 1.265 µM)?
Answer: 0.443

Question: And the relative viability (Idelalisib + Linsitinib; first compound 4 µM)?
Answer: 0.461

Question: And the relative viability (Pemetrexed + Navitoclax; first compound 0.002 µM)?
Answer: 0.59

Question: What about the relative viability (Pemetrexed + Navitoclax; first compound 0.006325 µM) of the same cell line?
Answer: 0.823

Question: What about the relative viability (Pemetrexed + Navitoclax; first compound 0.02 µM) of the same cell line?
Answer: 0.579

Question: What about the relative viability (Pemetrexed + Navitoclax; first compound 0.06325 µM) of the same cell line?
Answer: 0.564

Question: What about the relative viability (Pemetrexed + Navitoclax; first compound 0.2 µM) of the same cell line?
Answer: 0.585

Question: What does the source list for A549?
Answer: relative viability (Pemetrexed + Alpelisib; first compound 0.002 µM): 0.695; relative viability (Pemetrexed + Alpelisib; first compound 0.006325 µM): 0.682; relative viability (Pemetrexed + Alpelisib; first compound 0.02 µM): 0.946; relative viability (Pemetrexed + Alpelisib; first compound 0.06325 µM): 0.785; relative viability (Pemetrexed + Alpelisib; first compound 0.2 µM): 0.774; relative viability (Idelalisib + Linsitinib; first compound 0.04 µM): 0.53; relative viability (Idelalisib + Linsitinib; first compound 0.1265 µM): 0.544; relative viability (Idelalisib + Linsitinib; first compound 0.4 µM): 0.416; relative viability (Idelalisib + Linsitinib; first compound 1.265 µM): 0.589; relative viability (Idelalisib + Linsitinib; first compound 4 µM): 0.446; relative viability (Pemetrexed + Navitoclax; first compound 0.002 µM): 1.11; relative viability (Pemetrexed + Navitoclax; first compound 0.006325 µM): 1.13; relative viability (Pemetrexed + Navitoclax; first compound 0.02 µM): 1.25; relative viability (Pemetrexed + Navitoclax; first compound 0.06325 µM): 1.22; relative viability (Pemetrexed + Navitoclax; first compound 0.2 µM): 1.12

Question: For ChaGo-K-1, which relative viability (Idelalisib + Vorinostat; first compound 0.04 µM) is on record?
Answer: 0.832

Question: And the relative viability (Idelalisib + Vorinostat; first compound 0.1265 µM)?
Answer: 0.702

Question: And the relative viability (Idelalisib + Vorinostat; first compound 0.4 µM)?
Answer: 0.695

Question: And the relative viability (Idelalisib + Vorinostat; first compound 1.265 µM)?
Answer: 0.82

Question: What about the relative viability (Idelalisib + Vorinostat; first compound 4 µM) of the same cell line?
Answer: 0.732

Question: And the relative viability (Pemetrexed + Navitoclax; first compound 0.002 µM)?
Answer: 1.03

Question: And the relative viability (Pemetrexed + Navitoclax; first compound 0.006325 µM)?
Answer: 0.969

Question: What about the relative viability (Pemetrexed + Navitoclax; first compound 0.02 µM) of the same cell line?
Answer: 0.914

Question: And the relative viability (Pemetrexed + Navitoclax; first compound 0.06325 µM)?
Answer: 0.296

Question: What about the relative viability (Pemetrexed + Navitoclax; first compound 0.2 µM) of the same cell line?
Answer: 0.306
